Laboratory results taken from PubChem BioAssay (NCI).
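Grown in 96-well plates, cells were treated for 48 hours with each compound at five concentrations. Insufficient inhibition: endpoint recorded as highest concentration tested. GI50: concentration for 50% inhibition of growth. The concentration for full growth arrest is given as TGI.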

Tests used:
Test in all cases: inhibition of tumour cell growth, NCI panel, 48 h
[1] = system: 786-0 renal
[2] = system: A498 renal
[3] = system: A549 NSCLC
[4] = system: ACHN renal
[5] = system: BT-549 breast
[6] = system: CAKI-1 renal
[7] = system: CCRF-CEM leukemia
[8] = system: COLO 205 colon
[9] = system: DU-145 prostate
[10] = system: EKVX NSCLC
[11] = system: HCC-2998 colon
[12] = system: HCT-116 colon
[13] = system: HCT-15 colon
[14] = system: HL-60(TB) leukemia
[15] = system: HOP-62 NSCLC
[16] = system: HOP-92 NSCLC
[17] = system: HS 578T breast
[18] = system: HT29 colon
[19] = system: IGROV1 ovarian
[20] = system: K-562 leukemia
[21] = system: KM12 colon
[22] = system: LOX IMVI melanoma
[23] = system: M14 melanoma
[24] = system: MALME-3M melanoma
[25] = system: MCF7 breast
[26] = system: MDA-MB-231 breast
[27] = system: MDA-MB-435
[28] = system: MDA-MB-468 breast
[29] = system: MOLT-4 leukemia
[30] = system: NCI-H226 lung
[31] = system: NCI-H23 lung
[32] = system: NCI-H460 lung
[33] = system: NCI-H522 lung
[34] = system: OVCAR-3 ovarian
[35] = system: OVCAR-4 ovarian
[36] = system: OVCAR-5 ovarian
[37] = system: OVCAR-8 ovarian
[38] = system: PC-3 prostate
[39] = system: RXF 393 renal
[40] = system: SF-268 CNS
[41] = system: SF-295 CNS
[42] = system: SF-539 CNS
[43] = system: SK-MEL-2 melanoma
[44] = system: SK-MEL-28 melanoma
[45] = system: SK-MEL-5 melanoma
[46] = system: SK-OV-3 ovarian
[47] = system: SN12C renal
[48] = system: SNB-19 CNS
[49] = system: SNB-75 CNS
[50] = system: SR leukemia
[51] = system: SW-620 colon
[52] = system: T-47D breast
[53] = system: TK-10 renal
[54] = system: U251 CNS
[55] = system: UACC-257 melanoma
[56] = system: UACC-62 melanoma
[57] = system: UO-31 renal

O=C(/C=C/c1ccccc1)c1nc2ccccc2n1Cc1ccc(F)cc1
GI50 [1]: 1.82 µM
TGI [1]: 3.49 µM
GI50 [2]: 18.5 µM
TGI [2]: 33.1 µM
GI50 [3]: 4.82 µM
TGI [3]: 21.1 µM
GI50 [4]: 3.66 µM
TGI [4]: 12.6 µM
GI50 [5]: 2.54 µM
TGI [5]: 7.59 µM
GI50 [6]: 2.97 µM
TGI [6]: 12.5 µM
GI50 [7]: 4.43 µM
TGI [7]: > 100 µM
GI50 [8]: 3.18 µM
TGI [8]: 7.86 µM
GI50 [9]: 3.67 µM
TGI [9]: 14.2 µM
GI50 [10]: 4.86 µM
TGI [10]: 17 µM
GI50 [11]: 1.83 µM
TGI [11]: 3.91 µM
GI50 [12]: 1.92 µM
TGI [12]: 3.84 µM
GI50 [13]: 1.75 µM
TGI [13]: 3.66 µM
GI50 [14]: 2.44 µM
TGI [14]: 12.4 µM
GI50 [15]: 3.93 µM
TGI [15]: 12.6 µM
GI50 [16]: 4.03 µM
TGI [16]: 20.4 µM
GI50 [17]: 4.76 µM
TGI [17]: 47.6 µM
GI50 [18]: 3.26 µM
TGI [18]: 9.14 µM
GI50 [19]: 2.33 µM
TGI [19]: 5.89 µM
GI50 [20]: 3.1 µM
TGI [20]: > 100 µM
GI50 [21]: 2.18 µM
TGI [21]: 5.01 µM
GI50 [22]: 1.62 µM
TGI [22]: 3.1 µM
GI50 [23]: 3.17 µM
TGI [23]: 11.4 µM
GI50 [24]: 3.52 µM
TGI [24]: 14.5 µM
GI50 [25]: 1.77 µM
TGI [25]: 6.02 µM
GI50 [26]: 1.98 µM
TGI [26]: 4.17 µM
GI50 [27]: 2.23 µM
TGI [27]: 5.92 µM
GI50 [28]: 1.92 µM
TGI [28]: 3.73 µM
GI50 [29]: 3.16 µM
TGI [29]: > 100 µM
GI50 [30]: 13.8 µM
TGI [30]: 34.4 µM
GI50 [31]: 2.66 µM
TGI [31]: 8.6 µM
GI50 [32]: 2.14 µM
TGI [32]: 5.38 µM
GI50 [33]: 2.42 µM
TGI [33]: 5.85 µM
GI50 [34]: 2 µM
TGI [34]: 4.14 µM
GI50 [35]: 11.1 µM
TGI [35]: 28.6 µM
GI50 [36]: 3.31 µM
TGI [36]: 11.6 µM
GI50 [37]: 2.56 µM
TGI [37]: 6.88 µM
GI50 [38]: 4.13 µM
TGI [38]: 26.7 µM
GI50 [39]: 1.56 µM
TGI [39]: 3 µM
GI50 [40]: 7.22 µM
TGI [40]: 30.2 µM
GI50 [41]: 3.19 µM
TGI [41]: 10.8 µM
GI50 [42]: 2.01 µM
TGI [42]: 4.18 µM
GI50 [43]: 5.11 µM
TGI [43]: 17.1 µM
GI50 [44]: 2.18 µM
TGI [44]: 5.25 µM
GI50 [45]: 3.49 µM
TGI [45]: 14.4 µM
GI50 [46]: 18.9 µM
TGI [46]: 45.5 µM
GI50 [47]: 3.7 µM
TGI [47]: 13.8 µM
GI50 [48]: 2.13 µM
TGI [48]: 5.76 µM
GI50 [49]: 1.72 µM
TGI [49]: 10.9 µM
GI50 [50]: 2.99 µM
TGI [50]: > 100 µM
GI50 [51]: 2.15 µM
TGI [51]: 4.45 µM
GI50 [52]: 2.71 µM
TGI [52]: 12.1 µM
GI50 [53]: 2.9 µM
TGI [53]: 10.4 µM
GI50 [54]: 1.62 µM
TGI [54]: 3.19 µM
GI50 [55]: 4.1 µM
TGI [55]: 17 µM
GI50 [56]: 2.42 µM
TGI [56]: 10.4 µM
GI50 [57]: 1.77 µM
TGI [57]: 4.21 µM
